Assay results as given in patent US12617777B2, “GPR84 antagonists and uses thereof” (Liminal BioSciences Limited, priority 2021, dated 2026).
pIC50: −log10 of the molar value.

Biological target: T1, human GPR84 receptor (Homo sapiens, UniProt Q9NQS5)
T1 construct: host or cells: HEK293, transient transfection
Test: Gαi biosensor BRET assay in HEK293 cells (antagonism of ZQ-16)
Format: cell-based
Conditions: for inhibition at 10 µM: HEK293, single concentration 10 μM (designated F); for inhibition at 25 µM: HEK293, single concentration 25 μM (designated I); for pIC50: HEK293 cells, antagonism of 200 nmol/L ZQ-16; for inhibition at 2 µM: HEK293, single concentration 2 μM (designated A)
In short: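 Antagonist mode: test compound 5 min at 37° C, followed by ZQ-16 agonist (200 nmol/L, 5 min, room temperature), in HEK293 cells transfected with GPR84 plus Rluc8-tagged Gαi2, GFP10-Gγ2 and Gβ1. Readout as GFP10/Rluc8 emission ratio after 5 μmol/L coelenterazine 400A, net of Rluc8-only and vehicle signal.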

T1 sequence (Q9NQS5 whole entry): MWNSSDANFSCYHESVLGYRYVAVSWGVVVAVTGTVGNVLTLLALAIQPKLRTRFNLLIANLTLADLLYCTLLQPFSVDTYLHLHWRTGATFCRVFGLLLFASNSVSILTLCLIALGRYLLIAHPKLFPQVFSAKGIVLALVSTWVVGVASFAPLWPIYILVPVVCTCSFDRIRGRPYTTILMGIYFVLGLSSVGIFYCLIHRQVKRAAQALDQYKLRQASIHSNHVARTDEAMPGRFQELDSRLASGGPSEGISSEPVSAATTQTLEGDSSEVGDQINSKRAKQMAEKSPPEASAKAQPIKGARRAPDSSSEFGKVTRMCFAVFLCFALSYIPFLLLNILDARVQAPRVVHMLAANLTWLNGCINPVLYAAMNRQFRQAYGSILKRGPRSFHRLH

| inhibition at 10 µM [%] | pIC50 | SMILES | further results |
| --- | --- | --- | --- |
| > 75 | – | CC1(C)COC(Cn2cc(-c3c(Cl)cc(C#CC4CC4)c[n+]3[O-])nn2)OC1 [Compound I-817] | – |
| 25 to 50 | – | FC(F)(F)c1ccc(C#CC2CC2)cc1-c1cn(CC2CCCCO2)nn1 (stereo not drawn) [Compound I-179] | – |
| 25 to 50 | – | CN(C)c1cc(N2CC(C)(C(=O)O)C2)ccc1-c1cn(CC2OCC(C)(C)CO2)nn1 [Compound I-696] | – |
| > 75 | – | COC(Cc1cc(C#CC2CC2)ccc1C)c1cn(CC2OCC(C)(C)CO2)nn1 (stereo not drawn) [Compound I-753] | – |
| – | – | Cc1ccc(-c2cccc(-c3nnn(C[C@H]4CCCCO4)n3)c2)cn1 [Compound I-5] | inhibition at 25 µM: 25 to 50% |
| 50 to 75 | < 5.52 | Cc1cc(N2CCN(Cc3cccnn3)CC2)ccc1-c1cn(CC2CCCCO2)nn1 (stereo not drawn) [Compound I-548] | – |
| ≤ 25 | – | Cc1cc(N2CC3(CC3)C2)cnc1-c1cn(CC2CCCCO2)nn1 (stereo not drawn) [Compound I-571] | – |
| 25 to 50 | – | Cc1ccc(C#CC2CC2)cc1Cc1cn(CC2CCc3ccccc3O2)nn1 (stereo not drawn) [Compound I-551] | – |
| 50 to 75 | – | Cc1cc(C#CC2(O)CC2)ccc1-c1cn(CC2CCCCO2)nn1 (stereo not drawn) [Compound I-215] | – |
| > 75 | ≥ 6.52 | Cc1ccc(C#CC2CC2)cc1C(OCC(F)(F)F)c1cn(CC2OCC(C)(C)CO2)nn1 (stereo not drawn) [Compound I-617, 4-((5-(cyclopropylethynyl)-2-methylphenyl)(2,2,2-trifluoroethoxy)methyl)-1-((5,5-dimethyl-1,3-dioxan-2-yl)methyl)-1H-1,2,3-triazole] | – |
| > 75 | – | CC(C)Oc1cc(N2CC(C)(C)C2)cnc1-c1cn(CC2CCCCO2)nn1 (stereo not drawn) [Compound I-630] | – |
| > 75 | 5.52 to 6.00 | Cc1cc(C#CC2CC2)ccc1-c1cn(CC2CC3(CC3)CO2)nn1 (stereo not drawn) [Compound I-569] | – |
| > 75 | 6.00 to 6.52 | Cc1cc(C#CC2CC2)ccc1-c1cn(CC2OCC3(CC3)CO2)nn1 [Compound I-686] | – |
| – | – | CCc1cc(C#CCNC)ccc1-c1cn(CC2OCC(C)(C)CO2)nn1 [Compound I-859] | inhibition at 2 µM: > 75% |
| 50 to 75 | – | Cc1cc(N2CCN(Cc3ccccn3)CC2)ccc1-c1cn(CC2OCC(F)(F)CO2)nn1 [Compound I-615] | – |
| – | – | COC(Cn1cc(-c2ccc(C#CC3CC3)cc2C)nn1)c1ccccc1 (stereo not drawn) [Compound I-73] | inhibition at 25 µM: ≤ 25% |
| 50 to 75 | – | Cc1cc(C#CC2CC2)ccc1-c1cn(CC2CCC(F)(F)CO2)nn1 (stereo not drawn) [Compound I-207] | – |
| – | ≥ 6.52 | C(#CC1CC1)c1cnc(-c2cn(C[C@H]3CCCCO3)nn2)c(OC2CC2)c1 [Compound I-701] | inhibition at 2 µM: > 75% |
| ≤ 25 | – | Cc1cc(C#CC2CC2)cnc1-c1cn(CC2CCOCC2)nn1 [Compound I-196] | – |
| – | – | Cc1cc(C#CC2CC2)ccc1-c1cn(CC2Cc3ccccc3O2)nn1 (stereo not drawn) [Compound I-363] | inhibition at 3 µM (HEK293, single concentration 3 μM (designated B)): 25 to 50% |
| > 75 | 6.00 to 6.52 | Cc1cc(N2CC(C)(Nc3ccccc3)C2)ccc1-c1cn(CC2CCCCO2)nn1 (stereo not drawn) [Compound I-537, 3-methyl-1-(3-methyl-4-(1-((tetrahydro-2H-pyran-2-yl)methyl)-1H-1,2,3-triazol-4-yl)phenyl)-N-phenylazetidin-3-amine] | – |
| 25 to 50 | 6.00 to 6.52 | C(#CC1CC1)c1ccc2c(c1)CCc1cnn(CC3CCCCO3)c1-2 (stereo not drawn) [Compound I-329] | – |
| ≤ 25 | – | COC(=O)N1CCCCC1Cn1cc(-c2ccc(C#CC3CC3)cc2C)nn1 (stereo not drawn) [Compound I-190] | – |

| inhibition at 10 µM [%] | pIC50 | SMILES | further results |
| --- | --- | --- | --- |
| > 75 | 5.52 to 6.00 | Cc1cc(N2CCCC(N(C)Cc3ccccc3)C2)ccc1-c1cn(CC2CCCCO2)nn1 (stereo not drawn) [Compound I-171] | – |
| – | 6.00 to 6.52 | Cc1cc(C#CC2(O)CCCC2)ccc1-c1cn(CC2CCCCO2)nn1 (stereo not drawn) [Compound I-210] | – |
| ≤ 25 | – | Cc1cc(N2CC3(CCN(C)CC3)C2)ccc1-c1cn(CC2CCCCO2)nn1 (stereo not drawn) [Compound I-155] | – |
| ≤ 25 | – | CN1Cc2c(C#CC3CC3)ccc(-c3cn(CC4CCCCO4)nn3)c2C1 (stereo not drawn) [Compound I-268] | – |
| ≤ 25 | – | Cc1cc(C#CC2CC2)ccc1-c1cn(CC23CC(CO2)C3)nn1 [Compound I-525] | – |
| > 75 | 6.00 to 6.52 | CCc1cc(N2CC(C)(O)C2)ccc1-c1cn(CC2OCC(C)(C)CO2)nn1 [Compound I-641] | – |
| ≤ 25 | – | C(#CC1CC1)c1ccc2c(c1)CCn1nc(OC[C@H]3COCCO3)cc1-2 (stereo in doubt) [Compound I-332, 2-((1,4-dioxan-2-yl)methoxy)-8-(cyclopropylethynyl)-5,6-dihydropyrazolo[5,1-a]isoquinoline] | – |
| 25 to 50 | – | Cc1ccc(C#CC2CC2)cc1Cc1nnnn1CC1CCCCO1 (stereo not drawn) [Compound I-419] | – |
| ≤ 25 | – | COC(c1cn(CC2CCCCO2)nn1)c1cc(N2CC(C)(C)C2)ccc1C (stereo not drawn) [Compound I-593] | – |
| – | – | Cc1ccc(C#CC2CC2)nc1-c1cn(Cc2ncccn2)nn1 [Compound I-481] | inhibition at 2 µM: ≤ 25% |
| ≤ 25 | – | COc1ccc(C)c(N(C)c2cn(CC3OCC(C)(C)CO3)nn2)c1 [Compound I-814] | – |
| > 75 | 6.00 to 6.52 | CC1(C)COC(Cn2cc(-c3ncc(N4CC(C)(CO)C4)cc3OC3CC3)nn2)OC1 [Compound I-703] | – |
| > 75 | 6.00 to 6.52 | Cc1cc(C#CCNC(=O)OCc2ccccc2)ccc1-c1cn(CC2CCCCO2)nn1 (stereo not drawn) [Compound I-608] | – |
| – | 5.52 to 6.00 | Cc1cc(C#CC2CC2)cnc1-c1cn(CC2CCCCO2)nn1 (stereo not drawn) [Compound I-866] | – |
| 25 to 50 | – | Cc1cc(N2CCN([C@H](C)c3ccccn3)CC2)ccc1-c1cn(C[C@H]2CCCCO2)nn1 [Compound I-611] | – |
| ≤ 25 | – | Cc1cc(CN2CC(=O)NC2=O)ccc1-c1cn(CC2CCCCO2)nn1 (stereo not drawn) [Compound I-558] | – |
| 50 to 75 | – | COC(c1cn(CC2OCC(C)(C)CO2)nn1)c1cc(C#CC2CC2)ccc1C (stereo not drawn) [Compound I-592] | – |
| – | – | Cc1cc(C#CC2CC2)ccc1-n1cc(CN2CCOCC2)nn1 [Compound I-297] | inhibition at 25 µM: ≤ 25% |
| > 75 | – | Cc1cc(C#CCN(C)CC2CC2)cnc1-c1cn(CC2CCCCO2)nn1 (stereo not drawn) [Compound I-251] | – |
| 25 to 50 | – | Cc1cc(N2CC3(CN(Cc4ccccc4)C3)C2)ccc1-c1cn(CC2CCCCO2)nn1 (stereo not drawn) [Compound I-146] | – |
| > 75 | 6.00 to 6.52 | CC1(NCc2ccccn2)CN(c2ccc(-c3cn(CC4CCCCO4)nn3)c(CC(F)(F)F)c2)C1 (stereo not drawn) [Compound I-744] | – |
| ≤ 25 | – | Cc1cc(C#CC2CC2)ccc1-n1cc(CC2CCOCC2)nn1 [Compound I-269] | – |
| – | – | Cc1cc(C#CC2CC2)ccc1-c1cn(CC(C)Oc2ccccc2)nn1 (stereo not drawn) [Compound I-72] | inhibition at 25 µM: ≤ 25% |

| inhibition at 10 µM [%] | pIC50 | SMILES | further results |
| --- | --- | --- | --- |
| – | – | Cc1c(-c2ccc(C#CC3CC3)cc2)nnn1C[C@H]1CCCCO1 [Compound I-29] | inhibition at 25 µM: 50 to 75% |
| – | – | C(#CC1CC1)c1ccc(-c2cn(C[C@H]3CCCCO3)nn2)nc1 [Compound I-28] | inhibition at 25 µM: 25 to 50% |
| – | ≥ 6.52 | COCC#Cc1cnc(-c2cn(CC3OCC(C)(C)CO3)nn2)c(OC2CC2)c1 [Compound I-757] | inhibition at 2 µM: > 75% |
| – | 5.52 to 6.00 | CC1(C)COC(Cn2cc(-c3ncc(C#CCN4CC(C)(C)C4)cc3Cl)nn2)OC1 [Compound I-777] | – |
| > 75 | – | COC(c1cn(CC2OCC(F)(F)CO2)nn1)c1cc(C#CC2CC2)c(F)cc1C (stereo not drawn) [Compound I-723] | – |
| – | ≥ 6.52 | CCc1cc(C#CCN2CC(C)(C)C2)cnc1-c1cn(CC2OCC(C)(C)CO2)nn1 [Compound I-666] | inhibition at 2 µM: > 75% |
| > 75 | 5.52 to 6.00 | Cc1cc(N2CC3(CCCN3c3ccccn3)C2)ccc1-c1cn(CC2OCC(C)(C)CO2)nn1 [Compound I-689] | – |
| ≤ 25 | – | Cc1cc(OCC(C)(C)N)ccc1-c1cn(CC2CCCCO2)nn1 (stereo not drawn) [Compound I-287] | – |
| – | ≥ 6.52 | CN(C)c1cc(N2CC(C)(CO)C2)ccc1-c1cn(CC2OCC3(CC3)CO2)nn1 [Compound I-748] | inhibition at 2 µM: > 75% |
| > 75 | – | OCC#Cc1cnc(-c2cn(CC3OCC4(CC4)CO3)nn2)c(OC2CC2)c1 [Compound I-839] | – |
| – | – | Cc1nc(-c2ccc(C#CC3CC3)cc2)cn1CC1CCCCO1 (stereo not drawn) [Compound I-336] | inhibition at 25 µM: ≤ 25% |
| > 75 | 6.00 to 6.52 | CN(C)c1cc(N2CC(CO)(CO)C2)ccc1-c1cn(CC2OCC(C)(C)CO2)nn1 [Compound I-667] | – |
| > 75 | – | Cc1cc(C#CCN2CC(C)(C)C2)cnc1-c1cn(CC2Oc3ccccc3O2)nn1 [Compound I-627] | – |
| 25 to 50 | – | COCC1(C)CN(c2ccc(-c3cn(CC4CCCCO4)nn3)c(C)c2)C1 (stereo not drawn) [Compound I-439] | – |
| 50 to 75 | – | Cc1ccc(C#CC2CC2)cc1-c1noc(CC2CCCCO2)n1 (stereo not drawn) [Compound I-625] | – |
| – | – | O=c1oc(CC2CCCCO2)nn1-c1ccc(C#CC2CC2)cc1 (stereo not drawn) [Compound I-11] | inhibition at 25 µM: 25 to 50% |
| ≤ 25 | – | CNC1CCCN(c2ccc(-c3cn(CC4CCCCO4)nn3)c(C)c2)C1 (stereo not drawn) [Compound I-170] | – |
| – | 6.00 to 6.52 | CC1(C)COC(Cn2cc(-c3ccc(N4CC(C)(CO)C4)cc3OC3CC3)nn2)OC1 [Compound I-767] | – |
| ≤ 25 | – | Cc1cc(N2CC3(C2)CN(c2ccccn2)C3)ccc1-c1cn(CC2CCCCO2)nn1 (stereo not drawn) [Compound I-652] | – |
| 50 to 75 | – | Cc1ccc(C#CC2CC2)cc1-c1nnc(CC2CCCCO2)o1 (stereo not drawn) [Compound I-343] | – |
| – | – | Cc1c(-c2ccc(C#CC3CC3)cc2)ncn1CC1CCCCO1 (stereo not drawn) [Compound I-334] | inhibition at 25 µM: > 75% |
| – | ≥ 6.52 | CC1(C)COC(Cn2cc(-c3ccc(N4CC(C)(CO)C4)cc3CC(F)(F)F)nn2)OC1 [Compound I-735] | inhibition at 2 µM: > 75% |
| ≤ 25 | – | Cc1ccc(C#CC2CC2)cc1Nc1cnn(CC2OCC(C)(C)CO2)n1 [Compound I-759, N-(5-(cyclopropylethynyl)-2-methylphenyl)-2-((5,5-dimethyl-1,3-dioxan-2-yl)methyl)-2H-1,2,3-triazol-4-amine] | – |
